Experimental data taken from paper PMC4198181, “Gold(I) Complexes of 9-Deazahypoxanthine as Selective Antitumor and Anti-Inflammatory Agents” (PLoS ONE, 2014).

Key:
[1] = test system: human cancer cell lines (MCF7, HOS, A549, G361, HeLa, A2780, A2780R, 22Rv1); experiment: MTT in vitro cytotoxicity, summary over the panel of human cancer cell lines; format: cell-based; conditions: 24 h, MTT; HAuCl4 except on G361; read-out: IC50 against all the cancer cell lines tested (inactive up to the stated concentration)
Method: In vitro cytotoxic activity was determined by the MTT assay in human breast adenocarcinoma (MCF7; ECACC no. 86012803), human osteosarcoma (HOS; ECACC no. 87070202), lung carcinoma (A549; ECACC no. 86012804), malignant melanoma (G361; ECACC no. 88030401), cervix epitheloid carcinoma (HeLa; ECACC no. 93021013), ovarian carcinoma (A2780; ECACC no. 93112519), cisplatin-resistant ovarian carcinoma (A2780R; ECACC no. 93112517) and prostate carcinoma (22Rv1; ECACC no 105092802) cancer cell lines, purchased from European Collection of Cell Cultures (ECACC). The cells were cultured according to the ECACC instructions and they were maintained at 37°C and 5% CO2 in a humidified incubator. The primary culture of human hepatocytes (HEP220, batch number HEP220819) was obtained from Biopredic International (France). The culture medium was Williams and HAM's F-12 (1∶1) supplemented with penicillin, streptomycin, ascorbic acid, linoleic acid, holo-transferin, ethanolamine, glucagon, insulin, dexamethasone, pyruvate, glucose, glutamine, amphotericin. The medium was enriched for plating with 2% foetal calf serum (v/v). The medium was exchanged for a serum-free medium the day after and the culture was stabilized for additional 24 h. Thereafter, the cells were ready for treatments. The cultures were maintained at 37°C and 5% CO2 in a humidified incubator. The cells were treated with complexes 1–5 (at the concentration levels of 0.01, 0.1, 1.0, 5.0, 25.0, and 50.0 µM), starting compounds e.g. HL1–5, AuCl, and cisplatin (applied up to 50 µM) for 24 h, using multi-well culture plates of 96 wells. […]
The cytotoxicity data were expressed as the percentage of viability, where 100% represented the treatments with vehicle (0.1% DMF or 0.1% DMSO). […] The IC50 values were calculated from viability curves. […] The significance of the differences between the results was assessed by the ANOVA analysis with p<0.05 considered to be significant (QC Expert 3.2, Statistical software, TriloByte Ltd., Pardubice, Czech Republic).

[2] = test system: G361 malignant melanoma cells; experiment: MTT in vitro cytotoxicity, G361; format: cell-based, human; conditions: 24 h treatment, read-out: IC50±S.E., G361
Method: In vitro cytotoxic activity was determined by the MTT assay in human breast adenocarcinoma (MCF7; ECACC no. 86012803), human osteosarcoma (HOS; ECACC no. 87070202), lung carcinoma (A549; ECACC no. 86012804), malignant melanoma (G361; ECACC no. 88030401), cervix epitheloid carcinoma (HeLa; ECACC no. 93021013), ovarian carcinoma (A2780; ECACC no. 93112519), cisplatin-resistant ovarian carcinoma (A2780R; […] ECACC no 105092802) cancer cell lines, purchased from European Collection of Cell Cultures (ECACC). […] The primary culture of human hepatocytes (HEP220, batch number HEP220819) was obtained from Biopredic International (France). The culture medium was Williams and HAM's F-12 (1∶1) supplemented with penicillin, streptomycin, ascorbic acid, linoleic acid, holo-transferin, ethanolamine, glucagon, insulin, dexamethasone, pyruvate, glucose, glutamine, amphotericin. The medium was enriched for plating with 2% foetal calf serum (v/v). The medium was exchanged for a serum-free medium the day after and the culture was stabilized for additional 24 h. Thereafter, the cells were ready for treatments. […] The MTT assay was performed spectrophotometrically at 540 nm (TECAN, Schoeller Instruments LLC). The cytotoxicity data were expressed as the percentage of viability, where 100% represented the treatments with vehicle (0.1% DMF or 0.1% DMSO). The cytotoxicity data from the cancer cell lines were acquired from three independent experiments (conducted in triplicate) using cells from different passages. The IC50 values were calculated from viability curves. The results are presented as arithmetic means±standard error of the mean (S.E.).

[3] = test system: TNF-α secretion in LPS-stimulated macrophage-like THP-1 cells; experiment: LPS-induced TNF-α secretion in THP-1 macrophages (ELISA); format: cell-based, human; conditions: 300 nM, 1 h pretreatment, 24 h after LPS
Method: (§1) For the determination of biological activity, we used the human monocytic leukaemia cell line THP-1 (ECACC, Salisbury, UK). The cells were cultivated at 37°C in the RPMI 1640 medium supplemented with 2 mM L-glutamine, 10% FBS, 100 U/mL of penicillin and 100 µg/mL of streptomycin in a humidified atmosphere containing 5% CO2. Stabilized cells (3rd–15th passage) were split into microtitration plates to get a concentration of 500 000 cells/mL and the differentiation to macrophages was induced by phorbol myristate acetate (PMA) dissolved in dimethyl sulfoxide (DMSO) at the final concentration of 50 ng/ml, and the cells were incubated for 24 h. In comparison with monocytes, differentiated macrophages tend to adhere to the bottoms of the cultivation plates. For next 24 h the cells were incubated with a fresh complete RPMI medium, i.e. containing antibiotics and FBS, without PMA. The medium was then aspirated, and the cells were washed with PBS and cultivated for next 24 hours in serum-free RPMI 1640 medium. These prepared macrophages were used for the detection of inflammatory response.
(§2) Differentiated macrophages were pretreated with 300 nM solutions of the tested complexes, HLn, AuCl, [AuCl(PPh3)], PPh3 and Auranofin dissolved in DMSO (the final DMSO concentration was 0.1%) and with 0.1% DMSO solution itself (vehicle) for 1 h; the given concentrations of the tested compounds lack the cytotoxic effect (cell viability >94%) based on the results of WST-1 test. The inflammatory response in pretreated macrophages was triggered by the addition of 1.0 µg/mL lipopolysaccharide (LPS) dissolved in water, while the control cells (CTRL) remained without the LPS treatment.
(§3) Macrophages, which were pretreated with the tested compounds (complexes 1–5, HLn, AuCl, [AuCl(PPh3)], PPh3 and Auranofin) for 1 h, were incubated with LPS for next 24 h. After this period, the medium was collected and the concentration of TNF-α, and IL-1β was determined by the Instant ELISA Kit according to the manufactures' manual.
(§4) The statistically significant differences between individual groups during anti- inflammatory testing were evaluated using a one-way ANOVA test for statistical analysis, followed by Tukey's post-hoc test for multiple comparisons. GraphPad Prism 5.02 (GraphPad Software Inc., San Diego, CA, USA) was used to perform the analysis. The results are presented as arithmetic means±S.E. values.

[4] = test system: IL-1β secretion in LPS-stimulated macrophage-like THP-1 cells; experiment: LPS-induced IL-1β secretion in THP-1 macrophages (ELISA); format: cell-based, human; conditions: 300 nM, 1 h pretreatment, 24 h after LPS
Method: as §1, §2, §3, §4

TNF-α mRNA = experiment: TNF-α gene expression by RT-qPCR in LPS-stimulated THP-1 macrophages; format: cell-based, human; conditions: 300 nM, 2 h after LPS, normalised to β-actin
Method: as §1
(§5) In the order to evaluate the expression of TNF-α, IL-1β, and β-actin mRNA, total RNA was isolated directly from the LPS-stimulated THP-1 cells. THP-1 macrophages were pretreated with compounds 2, 5, and Auranofin at the concentration of 300 nM or the vehicle (0.1% DMSO) only. After 1 h of the incubation, the inflammatory response was induced by LPS [except for the control cells (CTRL)]. After 2 h of the incubation with LPS, the medium was aspirated and the total RNA was isolated directly from the cells in cultivation plates using a RealTime Ready Cell Lysis Kit (Roche), according to the manufacturer's instructions.
(§6) The gene expression was quantified by two-step reverse-transcription quantitative (real-time) PCR (RT-qPCR). The reverse transcription step was performed by Transcriptor Universal cDNA Master using cell lysate as a template. […] The results were normalized to the amount of ROX reference dye, and the change in gene expression was determined by the 2^−ΔΔCT method. […]

IL-1β mRNA = experiment: IL-1β gene expression by RT-qPCR in LPS-stimulated THP-1 macrophages; format: cell-based, human; conditions: 300 nM, 2 h after LPS, normalised to β-actin
Method: as §1, §5, §6

[5] = test system: THP-1 monocytic leukaemia cells; experiment: WST-1 in vitro cytotoxicity, THP-1; format: cell-based, human; conditions: 24 h treatment, WST-1, 0.16–10.00 µM; read-out: IC50±S.E., THP-1
Method: Before the in vitro anti-inflammatory testing, in vitro cytotoxicity on human monocytic leukaemia cells (THP-1, ECACC no. 88081201) was determined using the WST-1 assay. The THP-1 cells (floating monocytes, 500 000 cells/mL) were incubated in 100 µL of the serum-free RPMI 1640 medium and seeded into 96-well plates in triplicate at 37°C. Measurements were taken 24 h after the treatment with the tested compounds dissolved in 0.1% DMSO in the concentration range of 0.16–10.00 µM. Viability was determined by the WST-1 test according to the manufacturer's manual. The amount of the formed formazan (which correlates to the number of metabolically active cells in the culture) was calculated as a percentage of the control cells, which were treated only with 0.1% DMSO and was set-up as 100%. The IC50 values of the tested compounds were calculated from the obtained data. The WST-1 assay was performed spectrophotometrically at 440 nm (FLUOstar Omega, BMG Labtech).
The cytotoxicity data were expressed as the percentage of viability, where 100% represented the treatments with vehicle (0.1% DMF or 0.1% DMSO). The cytotoxicity data from the cancer cell lines were acquired from three independent experiments (conducted in triplicate) using cells from different passages. The IC50 values were calculated from viability curves. The results are presented as arithmetic means±standard error of the mean (S.E.). The significance of the differences between the results was assessed by the ANOVA analysis with p<0.05 considered to be significant (QC Expert 3.2, Statistical software, TriloByte Ltd., Pardubice, Czech Republic).

[6] = test system: IκB-α degradation (NF-κB signalling pathway); experiment: LPS-induced IκB-α degradation (Western blot) in THP-1 macrophages; format: cell-based, human; conditions: 300 nM, 30 min after LPS
Method: Macrophage-like THP-1 cells were pretreated with the tested compounds and stimulated by LPS as was describe above. Thirty minutes after the addition of LPS, the medium was aspirated and cells were washed by cold phosphate buffer solution (PBS). Subsequently, the cells were collected using the lysis buffer [50 mM Tris-HCl pH 7.5, 1 mM EGTA, 1 mM EDTA, 1 mM sodium orthovanadate, 50 mM sodium fluoride, 5 mM sodium pyrophosphate, 270 mM sucrose, 0.1% (v/v) Triton X-100, and cOmplete Protease Inhibitor Cocktail (Roche, Germany)] and scraper. The lysis of cells was facilitated by a short (≈30 s) incubation in the ultrasonic water bath. The protein concentration was determined according to Bradford's method. For protein separation, 30 µg of protein was loaded onto the 12% polyacrylamide gel. […] The membranes were incubated with the primary anti-IκB-α antibody at the concentration ratio of 1∶500, or with the primary anti-β-actin at the concentration ration of 1∶5 000 at 4°C for 16 h. After washing, the secondary anti-mouse IgG antibody diluted 1∶2 000 was applied on the membranes and incubated at laboratory temperature (22°C) for 1 h. The amount of the bound secondary antibody was detected colorimetrically by an Opti-4CN Kit according to the manufacturer's manual.

Row | SMILES | IC50 [1] [µM] | IC50 [2] [µM] | effect on LPS-induced TNF-α secretion [3] | effect on LPS-induced IL-1β secretion [4] | effect on TNF-α mRNA transcription (TNF-α mRNA) | effect on IL-1β mRNA transcription (IL-1β mRNA) | IC50 [5] [µM] | effect on LPS-induced IκB degradation [6]
1 | [Cl][Au-]([Cl])([Cl])[Cl].[H+] [HAuCl4, reference compound] | > 50 | 38.1 ± 2.3 | – | – | – | – | – | –
2 | [Au+].[Cl-] [AuCl] | > 50 | – | none of the reference compounds, such as AuCl, HLn, [AuCl(PPh3)] and PPh3, exhibited any expected effect | decreased the production of IL-1β by a manner comparable to free ligands | – | – | – | –
3 | CC[PH](CC)(CC)[Au][S][C@@H]1O[C@H](COC(C)=O)[C@@H](OC(C)=O)[C@H](OC(C)=O)[C@H]1OC(C)=O [Auranofin, triethylphosphine-(2,3,4,6-tetra-O-acetyl-β-D-thiopyranosato)gold(I), reference compound] | – | – | – | – | significantly reduce the transcription | significantly reduce the transcription | 0.9 ± 0.1 | block moderately the IκB degradation
